# Data from patent publication US20030207400A1, “Vectors for dna delivery” (priority 2003, published 2003).
# Tested on: plasmid pCMV/mEPO
# Assay: Gel electrophoresis of complexes of plasmid and fluorescently labelled polyamides
# Format: binding
# Conditions: agarose gel, after 10 min or 5 hr incubation; control rhodamine-peptide
# Method: The ability of the polyamides to bind the DNA plasmid was assessed by gel electrophoresis of complexes of plasmid and fluorescently labelled polyamides.
# A plasmid pCMV/mEPO was constructed by inserting the mouse EPO (mEPO) coding sequence as a EcoRI-BamHI 0.6 Kb fragment into pViJnsB (Montgomery, D. L., Shiver J. W., Leander K. R., Perry, H. C., Friedman, A., Martinez, D., Ulmer, J. B., Donnelly, J. J., Liu, M. A. (1993) DNA Cell. Biol. 12, 777-783.), which contains the CMV immediate/early region promoter and enhancer with intron A followed by the BGH polyadenylation signal. The mouse EPO coding region including 40 bp of the 5′ untranslated region (Shoemaker, C. B., & Mitsock, L. D. (1986) Mol. Cell. Biol. 6, 849-858) was assembled from synthetic oligonucleotides as described (Stemmer, W. P. C, Crameri, A., Ha, K. D., Brennan, T. M., & Heyneker, H. L. (1995) Gene 164, 49-53.).
# In a typical experiment either the rhodamine labelled polyamide (33), the peptide-polyamide (35) and the correspondent rhodamine-peptide as control, were dissolved in DMSO at a 0.55 mM concentration. Serial dilutions of the polyamides and the peptide were prepared in DMSO. The plasmid stock solution was 0.54 μM. […]
substance,measurement,value
Rhodamine-Aoc-Pro-Lys-Lys-Lys-Arg-Lys-Val-Gluu-Asp-Pro-Tyr-Lys(Br—CH2—CO)-Gly-Gly-CO—NH2 [compound 34],co-migration of the fluorescent label with the plasmid,does not co-migrate with the plasmid
